Data taken from US11445724B2, “Insecticidal compounds” (SYNGENTA PARTICIPATIONS AG, priority 2013, dated 2022).

Legend:
Format in all cases: in vivo
[1] = system: Diabrotica balteata (Corn root worm); experiment: Diabrotica balteata (Corn root worm) larval mortality, artificial diet in 24-well MTP; conditions: 120 h, application rate 200 ppm (concentration in well 18 ppm), L2 larvae, larval mortality after 5 days
[2] = system: Plutella xylostella (Diamond back moth); experiment: Plutella xylostella (Diamond back moth) larval mortality, artificial diet in 24-well MTP; conditions: 144 h, application rate 200 ppm (concentration in well 18 ppm), L2 larvae, larval mortality after 6 days
[3] = system: Spodoptera littoralis (Egyptian cotton leafworm); experiment: Spodoptera littoralis (Egyptian cotton leafworm) mortality, sprayed cotton leaf discs; conditions: foliar, 72 h, 200 ppm spray on cotton leaf discs, L1 larvae, mortality 3 DAT
[4] = system: Thrips tabaci (Onion thrips); experiment: Thrips tabaci (Onion thrips) mortality, sprayed sunflower leaf discs; conditions: foliar, 168 h, 200 ppm spray on sunflower leaf discs, mixed ages, mortality after 7 days
[5] = system: Myzus persicae (Green peach aphid); experiment: Myzus persicae (Green peach aphid) mortality, sprayed sunflower leaf discs; conditions: foliar, 144 h, 200 ppm spray on sunflower leaf discs, mixed ages, mortality 6 DAT

Measured: pest or weed control at 200 ppm

CCN(C(=O)c1ccccc1F)c1cccc(C(=O)Nc2c(Cl)cc(C(F)(C(F)(F)F)C(F)(F)F)cc2OC(F)F)c1OC [Compound 145]
≥ 80%: [1] | [2] | [3] | [4]

COc1c(NC(=O)c2ccccc2F)cccc1C(=O)Nc1c(Cl)cc(C(F)(C(F)(F)F)C(F)(F)F)cc1OC(F)F [Compound 75]
≥ 80%: [2] | [3] | [4]

COc1c(NC(=O)c2cc(C(F)(F)F)ccc2F)cccc1C(=O)Nc1c(Cl)cc(C(F)(C(F)(F)F)C(F)(F)F)cc1OC(F)F [Compound 98]
≥ 80%: [3]

CCN(C(=O)c1ccccc1C)c1cccc(C(=O)Nc2c(Br)cc(C(F)(C(F)(F)F)C(F)(F)F)cc2OC(F)F)c1OC [Compound 130]
≥ 80%: [1] | [2] | [3]

CCN(C(=O)c1ccc(C)cc1)c1cccc(C(=O)Nc2c(Cl)cc(C(F)(C(F)(F)F)C(F)(F)F)cc2OC(F)F)c1OC [Compound 149]
≥ 80%: [1] | [5] | [2] | [3] | [4]

COc1c(NC(=O)c2cccc(F)c2F)cccc1C(=O)Nc1c(Br)cc(C(F)(C(F)(F)F)C(F)(F)F)cc1OC(F)F [Compound 69]
≥ 80%: [1] | [5] | [2] | [3] | [4]

CCN(C(=O)c1ccc(F)cc1F)c1cccc(C(=O)Nc2c(Br)cc(C(F)(C(F)(F)F)C(F)(F)F)cc2OC(F)F)c1OC [Compound 143]
≥ 80%: [1] | [5] | [2] | [3] | [4]

O=C(Nc1cccc(C(=O)Nc2c(Cl)cc(C(F)(C(F)(F)F)C(F)(F)F)cc2OC(F)F)c1F)c1ccccc1OC(F)(F)F [Compound 65]
≥ 80%: [3]

O=C(Nc1cccc(C(=O)Nc2c(Cl)cc(C(F)(C(F)(F)F)C(F)(F)F)cc2OC(F)F)c1F)c1cc(C(F)(F)F)ccc1F [Compound 80]
≥ 80%: [1] | [2] | [3] | [4]

CCN(C(=O)c1ccccc1C(F)(F)F)c1cccc(C(=O)Nc2c(Cl)cc(C(F)(C(F)(F)F)C(F)(F)F)cc2OC(F)F)c1F [Compound 121]
≥ 80%: [1] | [2] | [3] | [4]

CCN(C(=O)c1ccccc1Cl)c1cccc(C(=O)Nc2c(Cl)cc(C(F)(C(F)(F)F)C(F)(F)F)cc2OC(F)F)c1OC [Compound 147]
≥ 80%: [1] | [5] | [2] | [3] | [4]

COc1c(NC(=O)c2ccc(C)cc2)cccc1C(=O)Nc1c(Cl)cc(C(F)(C(F)(F)F)C(F)(F)F)cc1OC(F)F [Compound 82]
≥ 80%: [1] | [5] | [2] | [3] | [4]

CCN(C(=O)c1ccccc1OC(F)(F)F)c1cccc(C(=O)Nc2c(Cl)cc(C(F)(C(F)(F)F)C(F)(F)F)cc2OC(F)F)c1F [Compound 118]
≥ 80%: [1] | [2] | [3]

CCN(C(=O)c1cc(Cl)ccc1F)c1cccc(C(=O)Nc2c(Cl)cc(C(F)(C(F)(F)F)C(F)(F)F)cc2OC(F)F)c1OC [Compound 151]
≥ 80%: [1] | [2] | [3] | [4]

O=C(Nc1cccc(C(=O)Nc2c(Cl)cc(C(F)(C(F)(F)F)C(F)(F)F)cc2OC(F)F)c1F)c1cc(Cl)ccc1F [Compound 55]
≥ 80%: [1] | [2] | [3] | [4]

CCN(C(=O)c1cc(C(F)(F)F)ccc1F)c1cccc(C(=O)Nc2c(Br)cc(C(F)(C(F)(F)F)C(F)(F)F)cc2OC(F)F)c1OC [Compound 144]
≥ 80%: [2] | [3] | [4]

CCN(C(=O)c1ccc(C)cc1)c1cccc(C(=O)Nc2c(Br)cc(C(F)(C(F)(F)F)C(F)(F)F)cc2OC(F)F)c1OC [Compound 132]
≥ 80%: [1] | [5] | [2] | [3] | [4]

CCN(C(=O)c1ccccc1Cl)c1cccc(C(=O)Nc2c(Br)cc(C(F)(C(F)(F)F)C(F)(F)F)cc2OC(F)F)c1OC [Compound 131]
≥ 80%: [1] | [5] | [2] | [3] | [4]

CCN(C(=O)c1ccc(F)cc1C)c1cccc(C(=O)Nc2c(Cl)cc(C(F)(C(F)(F)F)C(F)(F)F)cc2OC(F)F)c1OC [Compound 150]
≥ 80%: [1] | [2] | [3] | [4]

O=C(Nc1cccc(C(=O)Nc2c(Br)cc(C(F)(C(F)(F)F)C(F)(F)F)cc2OC(F)F)c1F)c1cc(C(F)(F)F)ccc1F [Compound 42]
≥ 80%: [1] | [2] | [3] | [4]

CCN(C(=O)c1cc(Cl)ccc1F)c1cccc(C(=O)Nc2c(Br)cc(C(F)(C(F)(F)F)C(F)(F)F)cc2OC(F)F)c1OC [Compound 134]
≥ 80%: [1] | [2] | [3] | [4]

CCN(C(=O)c1ccccc1OC(F)(F)F)c1cccc(C(=O)Nc2c(Br)cc(C(F)(C(F)(F)F)C(F)(F)F)cc2OC(F)F)c1OC [Compound 136]
≥ 80%: [1]

CCN(C(=O)c1ccc([N+](=O)[O-])cc1)c1cccc(C(=O)Nc2c(Cl)cc(C(F)(C(F)(F)F)C(F)(F)F)cc2OC(F)F)c1OC [Compound 148]
≥ 80%: [1] | [4]

COc1c(NC(=O)c2ccccc2OC(F)(F)F)cccc1C(=O)Nc1c(Cl)cc(C(F)(C(F)(F)F)C(F)(F)F)cc1OC(F)F [Compound 90]
≥ 80%: [1] | [2] | [3] | [4]

CCN(C(=O)c1ccccc1C)c1cccc(C(=O)Nc2c(Cl)cc(C(F)(C(F)(F)F)C(F)(F)F)cc2OC(F)F)c1OC [Compound 146]
≥ 80%: [1] | [2] | [3]

COc1ccccc1C(=O)Nc1cccc(C(=O)Nc2c(Br)cc(C(F)(C(F)(F)F)C(F)(F)F)cc2OC(F)F)c1OC [Compound 58]
≥ 80%: [1] | [2] | [3] | [4]

COc1c(NC(=O)c2cc(Cl)ccc2F)cccc1C(=O)Nc1c(Cl)cc(C(F)(C(F)(F)F)C(F)(F)F)cc1OC(F)F [Compound 85]
≥ 80%: [3]

COc1c(NC(=O)c2cc(C(F)(F)F)ccc2F)cccc1C(=O)Nc1c(Br)cc(C(F)(C(F)(F)F)C(F)(F)F)cc1OC(F)F [Compound 73]
≥ 80%: [5] | [3]

O=C(Nc1cccc(C(=O)Nc2c(Br)cc(C(F)(C(F)(F)F)C(F)(F)F)cc2OC(F)F)c1F)c1ccccc1C(F)(F)F [Compound 34]
≥ 80%: [2] | [3] | [4]

CCN(C(=O)c1ccccc1OC(F)(F)F)c1cccc(C(=O)Nc2c(Cl)cc(C(F)(C(F)(F)F)C(F)(F)F)cc2OC(F)F)c1OC [Compound 153]
≥ 80%: [1] | [4]

CCN(C(=O)c1ccccc1C(F)(F)F)c1cccc(C(=O)Nc2c(Cl)cc(C(F)(C(F)(F)F)C(F)(F)F)cc2OC(F)F)c1OC [Compound 157]
≥ 80%: [1] | [2] | [3] | [4]

O=C(Nc1cccc(C(=O)Nc2c(Cl)cc(C(F)(C(F)(F)F)C(F)(F)F)cc2OC(F)F)c1F)c1ccccc1C(F)(F)F [Compound 72]
≥ 80%: [2] | [3]

COc1ccccc1C(=O)Nc1cccc(C(=O)Nc2c(Cl)cc(C(F)(C(F)(F)F)C(F)(F)F)cc2OC(F)F)c1OC [Compound 91]
≥ 80%: [1] | [2] | [3]

COc1c(NC(=O)c2ccc(F)c(C(F)(F)F)c2)cccc1C(=O)Nc1c(Cl)cc(C(F)(C(F)(F)F)C(F)(F)F)cc1OC(F)F [Compound 88]
≥ 80%: [2] | [3] | [4]

COc1c(NC(=O)c2cccc(F)c2F)cccc1C(=O)Nc1c(Cl)cc(C(F)(C(F)(F)F)C(F)(F)F)cc1OC(F)F [Compound 96]
≥ 80%: [5] | [2] | [3]

CCN(C(=O)c1ccc(F)c(C(F)(F)F)c1)c1cccc(C(=O)Nc2c(Br)cc(C(F)(C(F)(F)F)C(F)(F)F)cc2OC(F)F)c1OC [Compound 163]
≥ 80%: [1] | [2] | [4]
